# Laboratory results taken from ChEMBL document CHEMBL1201862, “PubChem BioAssay data set” (2004).
#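 Five concentrations, 48 hours, 96-well plates. Abbreviation: GI50, concentration required for 50% inhibition of growth.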 The source made the active and inactive calls. No stated cut-off is given here; in the data, active = GI50 up to about 1.1 µM and inactive = higher.
# Legend:
# Test in all cases: growth of human tumour cells (NCI), 48 h
# A549 = system: A549
# Malme-3M = system: Malme-3M
# HL-60 = system: HL-60
# SNB-75 = system: SNB-75
# UO-31 = system: UO-31
# IGROV-1 = system: IGROV-1
# NCI-H522 = system: NCI-H522
# EKVX = system: EKVX
# OVCAR-5 = system: OVCAR-5
# SF-539 = system: SF-539
# LOX IMVI = system: LOX IMVI
# HCT-116 = system: HCT-116
# SF-295 = system: SF-295
# OVCAR-4 = system: OVCAR-4
# SR = system: SR
SMILES,GI50 (A549),GI50 (Malme-3M),GI50 (HL-60),GI50 (SNB-75),GI50 (UO-31),GI50 (IGROV-1),GI50 (NCI-H522),GI50 (EKVX),GI50 (OVCAR-5),GI50 (SF-539),GI50 (LOX IMVI),GI50 (HCT-116),GI50 (SF-295),GI50 (OVCAR-4),GI50 (SR)
Cc1nc2c(o1)/C(=N\c1ccccc1)c1ccccc1C2=O,20.3 µM (inactive),3.98 µM (inactive),3.3 µM (inactive),10.9 µM (inactive),7.89 µM (inactive),17.9 µM (inactive),4.57 µM (inactive),14.2 µM (inactive),18.5 µM (inactive),5.16 µM (inactive),3.32 µM (inactive),6.98 µM (inactive),16.5 µM (inactive),–,–
O=C1C=C[C@@]23CC1C(O)C[C@H]2C=Cc1ccccc13 (some centres undefined),> 100 µM (inactive),> 100 µM (inactive),> 100 µM (inactive),91.6 µM (inactive),> 100 µM (inactive),> 100 µM (inactive),> 100 µM (inactive),–,> 100 µM (inactive),> 100 µM (inactive),> 100 µM (inactive),> 100 µM (inactive),> 100 µM (inactive),> 100 µM (inactive),–
O=[N+]([O-])c1cccc(C2=NOC(C3CCCCC3)C2)c1 (centres undefined),> 100 µM (inactive),> 100 µM (inactive),> 100 µM (inactive),> 100 µM (inactive),> 100 µM (inactive),> 100 µM (inactive),> 100 µM (inactive),–,92 µM (inactive),> 100 µM (inactive),–,> 100 µM (inactive),94.6 µM (inactive),> 100 µM (inactive),–
CC1=CCC(O)C=CC(C)C(O)C(C)C=C(C)C(=O)c2c(O)c(C)cc3c2C(=O)C(N)=C(NC(=O)/C=C\C=C/C=CC(C)C(O)CC1=O)C3=O (centres undefined),> 100 µM (inactive),30.1 µM (inactive),0.292 µM (active),> 100 µM (inactive),63 µM (inactive),> 100 µM (inactive),19.5 µM (inactive),> 100 µM (inactive),> 100 µM (inactive),> 100 µM (inactive),> 100 µM (inactive),21.6 µM (inactive),> 100 µM (inactive),> 100 µM (inactive),–
COc1cc([C@H]2c3cc4c(cc3[C@H](NCc3ccc(F)cc3)C3COC(=O)[C@H]32)OCO4)cc(OC)c1O (some centres undefined),–,3.79 µM (inactive),0.815 µM (active),2.08 µM (inactive),4.13 µM (inactive),1.44 µM (inactive),2.43 µM (inactive),6.19 µM (inactive),8.91 µM (inactive),1.79 µM (inactive),2.64 µM (inactive),7.59 µM (inactive),2.25 µM (inactive),37.6 µM (inactive),–
O=C1c2ccccc2C(=O)C1(Cl)C1(S(=O)(=O)O)c2ccccc2-c2ccccc21,> 100 µM (inactive),> 100 µM (inactive),> 100 µM (inactive),> 100 µM (inactive),> 100 µM (inactive),> 100 µM (inactive),> 100 µM (inactive),–,> 100 µM (inactive),> 100 µM (inactive),> 100 µM (inactive),> 100 µM (inactive),> 100 µM (inactive),> 100 µM (inactive),> 100 µM (inactive)
CC(=O)c1ccc(NC(=O)C(=O)C(C(=O)c2ccc(Cl)c(Cl)c2)C2OC(=O)c3ccccc32)cc1 (centres undefined),21.4 µM (inactive),5.97 µM (inactive),28.1 µM (inactive),–,24.4 µM (inactive),29.7 µM (inactive),9.38 µM (inactive),40 µM (inactive),21.5 µM (inactive),–,14.4 µM (inactive),13 µM (inactive),–,26.5 µM (inactive),> 100 µM (inactive)
O=C(c1ccccc1)N1CCN2CCN=C(c3ccccc3)C21c1ccccc1 (centres undefined),95.3 µM (inactive),35.5 µM (inactive),19.2 µM (inactive),51.3 µM (inactive),22.8 µM (inactive),> 100 µM (inactive),–,70.8 µM (inactive),–,71.3 µM (inactive),> 100 µM (inactive),48.2 µM (inactive),52.1 µM (inactive),29.4 µM (inactive),–
COc1c(C)cc(O)cc1C=O,> 100 µM (inactive),> 100 µM (inactive),> 100 µM (inactive),> 100 µM (inactive),> 100 µM (inactive),> 100 µM (inactive),> 100 µM (inactive),> 100 µM (inactive),> 100 µM (inactive),> 100 µM (inactive),> 100 µM (inactive),–,> 100 µM (inactive),> 100 µM (inactive),–
O=P(CN1CCOCC1)(c1ccccc1)c1ccccc1,> 100 µM (inactive),> 100 µM (inactive),> 100 µM (inactive),> 100 µM (inactive),> 100 µM (inactive),> 100 µM (inactive),> 100 µM (inactive),> 100 µM (inactive),> 100 µM (inactive),> 100 µM (inactive),> 100 µM (inactive),> 100 µM (inactive),> 100 µM (inactive),> 100 µM (inactive),–
CN(C)c1ccc(/C=C2\CCc3ccccc3C2=O)cc1Br,51.3 µM (inactive),42.8 µM (inactive),21.2 µM (inactive),> 100 µM (inactive),> 100 µM (inactive),–,23.2 µM (inactive),99.5 µM (inactive),> 100 µM (inactive),> 100 µM (inactive),32.7 µM (inactive),37.3 µM (inactive),> 100 µM (inactive),83.9 µM (inactive),29.2 µM (inactive)
CCN(CC)C(=O)CNC(=O)OC(C)(C)C,> 100 µM (inactive),> 100 µM (inactive),> 100 µM (inactive),> 100 µM (inactive),> 100 µM (inactive),> 100 µM (inactive),> 100 µM (inactive),> 100 µM (inactive),> 100 µM (inactive),> 100 µM (inactive),> 100 µM (inactive),> 100 µM (inactive),> 100 µM (inactive),> 100 µM (inactive),–
Cc1c2n(c(=O)[nH]c1=O)C1OC(CO)C(O2)C1N=[N+]=[N-] (centres undefined),> 100 µM (inactive),–,> 100 µM (inactive),> 100 µM (inactive),> 100 µM (inactive),> 100 µM (inactive),> 100 µM (inactive),> 100 µM (inactive),–,> 100 µM (inactive),> 100 µM (inactive),> 100 µM (inactive),> 100 µM (inactive),> 100 µM (inactive),> 100 µM (inactive)
COc1ccc(C(=O)O)c2c(=O)c3ccccc3[nH]c12,> 100 µM (inactive),> 100 µM (inactive),> 100 µM (inactive),–,> 100 µM (inactive),> 100 µM (inactive),> 100 µM (inactive),> 100 µM (inactive),> 100 µM (inactive),> 100 µM (inactive),> 100 µM (inactive),> 100 µM (inactive),> 100 µM (inactive),> 100 µM (inactive),> 100 µM (inactive)
Cc1cnc2c(C)ccc([N+](=O)[O-])c2c1NCCCN(C)C,> 100 µM (inactive),73.6 µM (inactive),> 100 µM (inactive),–,> 100 µM (inactive),> 100 µM (inactive),> 100 µM (inactive),> 100 µM (inactive),> 100 µM (inactive),> 100 µM (inactive),> 100 µM (inactive),> 100 µM (inactive),> 100 µM (inactive),> 100 µM (inactive),> 100 µM (inactive)
CC1=Nc2ccccc2NC(c2ccoc2)C1 (centres undefined),> 100 µM (inactive),> 100 µM (inactive),> 100 µM (inactive),> 100 µM (inactive),> 100 µM (inactive),> 100 µM (inactive),> 100 µM (inactive),> 100 µM (inactive),> 100 µM (inactive),> 100 µM (inactive),> 100 µM (inactive),> 100 µM (inactive),> 100 µM (inactive),> 100 µM (inactive),> 100 µM (inactive)
CCCCCCCCOCC(COC(=O)CCCCCCC)OC(=O)CCCCCCC (centres undefined),> 100 µM (inactive),> 100 µM (inactive),> 100 µM (inactive),–,> 100 µM (inactive),> 100 µM (inactive),–,–,> 100 µM (inactive),–,> 100 µM (inactive),> 100 µM (inactive),> 100 µM (inactive),> 100 µM (inactive),53 µM (inactive)
O=[N+]([O-])c1ccc(Sc2c3ccccc3nc3ccccc23)cc1,> 100 µM (inactive),> 100 µM (inactive),46.5 µM (inactive),> 100 µM (inactive),> 100 µM (inactive),> 100 µM (inactive),74.1 µM (inactive),> 100 µM (inactive),> 100 µM (inactive),> 100 µM (inactive),> 100 µM (inactive),> 100 µM (inactive),> 100 µM (inactive),> 100 µM (inactive),–
Cc1cc(N(CCC#N)CCC#N)ccc1/N=N/c1ccc(Br)cc1,15.1 µM (inactive),53.6 µM (inactive),> 100 µM (inactive),–,27.7 µM (inactive),10.9 µM (inactive),16.6 µM (inactive),26.8 µM (inactive),> 100 µM (inactive),17.8 µM (inactive),> 21.7 µM (inactive),36.8 µM (inactive),21.4 µM (inactive),> 100 µM (inactive),–
C=CC1C(OC2OC(CO)C(O)C(O)C2O)OC=C(C(=O)OC)C1CC=O (centres undefined),> 100 µM (inactive),> 100 µM (inactive),> 100 µM (inactive),> 100 µM (inactive),> 100 µM (inactive),> 100 µM (inactive),–,> 100 µM (inactive),–,> 100 µM (inactive),> 100 µM (inactive),–,> 100 µM (inactive),> 100 µM (inactive),> 100 µM (inactive)
